Assay results taken from patent US9133207B2, “Tetrandrine derivatives with substituted 5-carbon, preparation method and use thereof” (Hangzhou Bensheng Pharmaceutical Co., Ltd., priority 2011, dated 2015).
Values after ≈ are worked out from the molar mass of the structure shown.

Columns and labels:
[1] = test system: NB4 (acute promyelocytic leukemia, AML); assay: Leukemia cell growth inhibition, MTT, 72 h (Example 5); format: cell-based, human; conditions: Homo sapiens; 72 h, MTT
How it was run: (§1)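 6000 cells/well in RPMI 1640 with 10% FBS exposed to graded derivative concentrations for 72 h at 37 °C, 5% CO2. Viable cell concentration then measured by MTT.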

[2] = test system: Kasumi-1 (acute myeloid leukemia M2 type, AML-M2); assay: as above; format: cell-based, human; conditions: Homo sapiens, Kasumi 1
How it was run: as §1

[3] = test system: Jurkat (acute lymphoblastic leukemia, ALL); assay: as above; format: cell-based, human; conditions: Homo sapiens, Jurkat; 72 h, MTT
How it was run: as §1

[4] = test system: H9 (acute lymphoblastic leukemia, ALL); assay: as above; format: cell-based, human; conditions: Homo sapiens; 72 h, MTT
How it was run: as §1

[5] = test system: K562/adr (drug-resistant, chronic myeloid leukemia, CML); assay: as above; format: cell-based, human; conditions: Homo sapiens, K562/Adr; 72 h, MTT
How it was run: as §1

[6] = test system: RPMI8226 (multiple myeloma); assay: Multiple myeloma cell growth inhibition, MTT, 72 h (Example 6); format: cell-based, human; conditions: Homo sapiens, RPMI-8226; 72 h, MTT, RPMI8226
How it was run: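 RPMI8226 cells (6000 per well) in RPMI 1640 with 10% FBS were exposed to a range of tetrandrine derivative concentrations for 72 h at 37 °C under 5% CO2. Viable cell concentration was then measured by MTT.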

MG63 (osteosarcoma) = assay: Solid tumor cell growth inhibition, MTT, 72 h (Example 7); format: cell-based, human; conditions: Homo sapiens; 72 h, MTT, MG-63
How it was run: (§2)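 Read-out is MTT-based viable cell concentration, reported as % viability relative to untreated control set at 100%. Cells at 4000 per well received tetrandrine derivatives at various concentrations for 72 h after 24 h attachment in DMEM high glucose/10% FBS, 37 °C, 5% CO2.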

PC-3 (prostate cancer) = assay: as above; format: cell-based, human; conditions: Homo sapiens; 72 h, MTT, PC-3
How it was run: as §2

[7] = test system: CaES-17 (esophageal cancer cell); assay: as above; format: cell-based, human; conditions: Homo sapiens, CaEs17; 72 h, MTT, CAES-17
How it was run: as §2

[8] = test system: PANC-1 (pancreatic cancer); assay: as above; format: cell-based, human; conditions: Homo sapiens; 72 h, MTT, PANC-1
How it was run: as §2

[9] = test system: Huh7 (human liver cancer cell); assay: as above; format: cell-based; conditions: Homo sapiens; 72 h, MTT, Huh-7
How it was run: as §2

[10] = test system: MGC 803 (human gastric cancer cell); assay: as above; format: cell-based; conditions: Homo sapiens
How it was run: as §2

[11] = test system: RKO (human colon adenocarcinoma cell); assay: as above; format: cell-based; conditions: Homo sapiens; 72 h, MTT, RKO
How it was run: as §2

[12] = test system: Becap37 (human breast cancer cell); assay: as above; format: cell-based; conditions: Homo sapiens; 72 h, MTT, Becap-37
How it was run: as §2

A549 (human lung cancer) = assay: as above; format: cell-based; conditions: Homo sapiens; 72 h, MTT, A549
How it was run: as §2

Row | SMILES | IC50 [1] [µg/mL] | IC90 [1] [µg/mL] | IC50 [2] [µg/mL] | IC90 [2] [µg/mL] | IC50 [3] [µg/mL] | IC90 [3] [µg/mL] | IC50 [4] [µg/mL] | IC90 [4] [µg/mL] | IC50 [5] [µg/mL] | IC90 [5] [µg/mL] | IC50 [6] [µg/mL] | IC90 [6] [µg/mL] | IC50 (MG63 (osteosarcoma)) [µg/mL] | IC90 (MG63 (osteosarcoma)) [µg/mL] | IC50 (PC-3 (prostate cancer)) [µg/mL] | IC90 (PC-3 (prostate cancer)) [µg/mL] | IC50 [7] [µg/mL] | IC90 [7] [µg/mL] | IC50 [8] [µg/mL] | IC90 [8] [µg/mL] | other results
1 | COCCCNCc1c2c3c(c(OC)c1OC)Oc1cc4c(cc1OC)CCN(C)[C@H]4Cc1ccc(cc1)Oc1cc(ccc1OC)C[C@@H]3N(C)CC2 [BS-TE-340] | 1.07 (≈ 1.48 µM) | 2.87 (≈ 3.96 µM) | 0.66 (≈ 0.912 µM) | 1.8 (≈ 2.49 µM) | 2.24 (≈ 3.09 µM) | 4 (≈ 5.53 µM) | 1.93 (≈ 2.67 µM) | 3.23 (≈ 4.46 µM) | 0.98 (≈ 1.35 µM) | 2.39 (≈ 3.3 µM) | 0.18 (≈ 0.249 µM) | 0.999 (≈ 1.38 µM) | 0.6 (≈ 0.829 µM) | 1.19 (≈ 1.64 µM) | 3.43 (≈ 4.74 µM) | 4 (≈ 5.53 µM) | 1.83 (≈ 2.53 µM) | 7.21 (≈ 9.96 µM) | 3.61 (≈ 4.99 µM) | 5.72 (≈ 7.9 µM) | IC50 [9]: 2.52 µg/mL (≈ 3.48 µM); IC90 [9]: 4.85 µg/mL (≈ 6.7 µM); IC50 [10]: 2.34 µg/mL (≈ 3.23 µM); IC90 [10]: 5.54 µg/mL (≈ 7.65 µM); IC50 [11]: 1.29 µg/mL (≈ 1.78 µM); IC90 [11]: 2.45 µg/mL (≈ 3.38 µM); IC50 [12]: 1.99 µg/mL (≈ 2.75 µM); IC90 [12]: 4.12 µg/mL (≈ 5.69 µM); IC50 (A549 (human lung cancer)): 2.36 µg/mL (≈ 3.26 µM); IC90 (A549 (human lung cancer)): 6.66 µg/mL (≈ 9.2 µM)
2 | COc1ccc2cc1Oc1ccc(cc1)C[C@H]1c3cc(c(OC)cc3CCN1C)Oc1c(OC)c(OC)c(CN3CCN(c4ccccc4)CC3)c3c1[C@H](C2)N(C)CC3 [BS-TE-343] | 1.18 (≈ 1.48 µM) | 3.06 (≈ 3.84 µM) | 2.24 (≈ 2.81 µM) | 6.95 (≈ 8.72 µM) | 1.9 (≈ 2.38 µM) | 5.27 (≈ 6.61 µM) | 1.62 (≈ 2.03 µM) | 2.75 (≈ 3.45 µM) | 0.68 (≈ 0.853 µM) | 2.38 (≈ 2.99 µM) | 0.05 (≈ 0.0627 µM) | 0.7 (≈ 0.878 µM) | 1.15 (≈ 1.44 µM) | 2.47 (≈ 3.1 µM) | 2.72 (≈ 3.41 µM) | 4.28 (≈ 5.37 µM) | 2.09 (≈ 2.62 µM) | 8.09 (≈ 10.2 µM) | 2.84 (≈ 3.56 µM) | 4.84 (≈ 6.07 µM) | IC50 [9]: 2.14 µg/mL (≈ 2.69 µM); IC90 [9]: 4.85 µg/mL (≈ 6.09 µM); IC50 [10]: 1.1 µg/mL (≈ 1.38 µM); IC90 [10]: 2.88 µg/mL (≈ 3.61 µM); IC50 [11]: 2.25 µg/mL (≈ 2.82 µM); IC90 [11]: 3.24 µg/mL (≈ 4.07 µM); IC50 [12]: 6.96 µg/mL (≈ 8.73 µM); IC90 [12]: 8.17 µg/mL (≈ 10.3 µM); IC50 (A549 (human lung cancer)): 3.54 µg/mL (≈ 4.44 µM); IC90 (A549 (human lung cancer)): 12 µg/mL (≈ 15 µM)
3 | COc1ccc2cc1Oc1ccc(cc1)C[C@H]1c3cc(c(OC)cc3CCN1C)Oc1c(OC)c(OC)c(CN3CCOCC3)c3c1[C@H](C2)N(C)CC3 [BS-TE-307] | 0.73 (≈ 1.01 µM) | 4.35 (≈ 6.03 µM) | 1 (≈ 1.39 µM) | 4.79 (≈ 6.64 µM) | 3.08 (≈ 4.27 µM) | 13.2 (≈ 18.4 µM) | 0.87 (≈ 1.21 µM) | 1.99 (≈ 2.76 µM) | 0.25 (≈ 0.346 µM) | 7.8 (≈ 10.8 µM) | 0.07 (≈ 0.097 µM) | 0.42 (≈ 0.582 µM) | 0.82 (≈ 1.14 µM) | 2.32 (≈ 3.21 µM) | 2.88 (≈ 3.99 µM) | 6.99 (≈ 9.68 µM) | 1.1 (≈ 1.52 µM) | 18.8 (≈ 26.1 µM) | 3.47 (≈ 4.81 µM) | 8.88 (≈ 12.3 µM) | IC50 [9]: 3 µg/mL (≈ 4.16 µM); IC90 [9]: 4.9 µg/mL (≈ 6.79 µM); IC50 [10]: 3.74 µg/mL (≈ 5.18 µM); IC90 [10]: 14.1 µg/mL (≈ 19.6 µM); IC50 [11]: 0.95 µg/mL (≈ 1.32 µM); IC90 [11]: 3.27 µg/mL (≈ 4.53 µM); IC50 [12]: 1.79 µg/mL (≈ 2.48 µM); IC90 [12]: 6.94 µg/mL (≈ 9.61 µM); IC50 (A549 (human lung cancer)): 2.3 µg/mL (≈ 3.19 µM); IC90 (A549 (human lung cancer)): 8 µg/mL (≈ 11.1 µM)
